# Source: PubChem BioAssay (NCI)
#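 Results reflect a 48-hour exposure of cells in 96-well plates to compound at five concentrations. Here, GI50 denotes the concentration required for 50% inhibition of growth. Definition used: TGI = concentration required for complete inhibition of growth.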
# Key:
# Test in all cases: growth of human tumour cells (NCI), 48 h
# K-562 leukemia = tested on: K-562 leukemia
# HOP-62 NSCLC = tested on: HOP-62 NSCLC
# NCI-H460 lung = tested on: NCI-H460 lung
# SK-MEL-2 melanoma = tested on: SK-MEL-2 melanoma
# SNB-19 CNS = tested on: SNB-19 CNS
# M14 melanoma = tested on: M14 melanoma
# TK-10 renal = tested on: TK-10 renal
# OVCAR-8 ovarian = tested on: OVCAR-8 ovarian
# BT-549 breast = tested on: BT-549 breast
# SW-620 colon = tested on: SW-620 colon
# HCT-116 colon = tested on: HCT-116 colon
# MDA-MB-231 breast = tested on: MDA-MB-231 breast
# OVCAR-5 ovarian = tested on: OVCAR-5 ovarian
# OVCAR-3 ovarian = tested on: OVCAR-3 ovarian
# NCI-H522 lung = tested on: NCI-H522 lung
# SF-268 CNS = tested on: SF-268 CNS
# HCT-15 colon = tested on: HCT-15 colon
# CAKI-1 renal = tested on: CAKI-1 renal
# UO-31 renal = tested on: UO-31 renal
# UACC-257 melanoma = tested on: UACC-257 melanoma
# 786-0 renal = tested on: 786-0 renal
# SF-539 CNS = tested on: SF-539 CNS
# KM12 colon = tested on: KM12 colon
# U251 CNS = tested on: U251 CNS
# SF-295 CNS = tested on: SF-295 CNS
# HS 578T breast = tested on: HS 578T breast
# NCI/ADR-RES ovarian = tested on: NCI/ADR-RES ovarian
# PC-3 prostate = tested on: PC-3 prostate
# OVCAR-4 ovarian = tested on: OVCAR-4 ovarian
# MCF7 breast = tested on: MCF7 breast
# ACHN renal = tested on: ACHN renal
# MDA-MB-435 = tested on: MDA-MB-435
# NCI-H23 lung = tested on: NCI-H23 lung
# SR leukemia = tested on: SR leukemia
# UACC-62 melanoma = tested on: UACC-62 melanoma
# HCC-2998 colon = tested on: HCC-2998 colon
# MOLT-4 leukemia = tested on: MOLT-4 leukemia
# SN12C renal = tested on: SN12C renal
# EKVX NSCLC = tested on: EKVX NSCLC
# SNB-75 CNS = tested on: SNB-75 CNS
# A549 NSCLC = tested on: A549 NSCLC
# NCI-H226 lung = tested on: NCI-H226 lung
# CCRF-CEM leukemia = tested on: CCRF-CEM leukemia
# HT29 colon = tested on: HT29 colon
# SK-MEL-5 melanoma = tested on: SK-MEL-5 melanoma
# COLO 205 colon = tested on: COLO 205 colon
# IGROV1 ovarian = tested on: IGROV1 ovarian
# SK-OV-3 ovarian = tested on: SK-OV-3 ovarian
# LOX IMVI melanoma = tested on: LOX IMVI melanoma
# RXF 393 renal = tested on: RXF 393 renal
# SK-MEL-28 melanoma = tested on: SK-MEL-28 melanoma
# HL-60(TB) leukemia = tested on: HL-60(TB) leukemia
# RPMI-8226 leukemia = tested on: RPMI-8226 leukemia
# A498 renal = tested on: A498 renal
# HOP-92 NSCLC = tested on: HOP-92 NSCLC
# DU-145 prostate = tested on: DU-145 prostate
compound,measurement,setting,value
CC1(C)N([O-])[N+](=O)C1(C)Br (centres undefined),TGI,K-562 leukemia,> 100 µM
same,TGI,HOP-62 NSCLC,> 100 µM
same,TGI,NCI-H460 lung,> 100 µM
same,TGI,SK-MEL-2 melanoma,> 100 µM
same,TGI,SNB-19 CNS,> 100 µM
same,TGI,M14 melanoma,> 100 µM
same,TGI,TK-10 renal,> 100 µM
same,TGI,OVCAR-8 ovarian,> 100 µM
same,TGI,BT-549 breast,> 100 µM
same,TGI,SW-620 colon,> 100 µM
same,TGI,HCT-116 colon,> 100 µM
same,TGI,MDA-MB-231 breast,> 100 µM
same,TGI,OVCAR-5 ovarian,> 100 µM
same,TGI,OVCAR-3 ovarian,> 100 µM
same,TGI,NCI-H522 lung,> 100 µM
same,TGI,SF-268 CNS,> 100 µM
same,TGI,HCT-15 colon,> 100 µM
same,TGI,CAKI-1 renal,> 100 µM
same,TGI,UO-31 renal,> 100 µM
same,TGI,UACC-257 melanoma,> 100 µM
same,TGI,786-0 renal,> 100 µM
same,TGI,SF-539 CNS,> 100 µM
same,TGI,KM12 colon,> 100 µM
same,TGI,U251 CNS,> 100 µM
same,TGI,SF-295 CNS,> 100 µM
same,TGI,HS 578T breast,> 100 µM
same,TGI,NCI/ADR-RES ovarian,> 100 µM
same,TGI,PC-3 prostate,> 100 µM
same,TGI,OVCAR-4 ovarian,> 100 µM
same,TGI,MCF7 breast,> 100 µM
same,TGI,ACHN renal,> 100 µM
same,TGI,MDA-MB-435,> 100 µM
same,TGI,NCI-H23 lung,> 100 µM
same,TGI,SR leukemia,> 100 µM
same,TGI,UACC-62 melanoma,> 100 µM
same,TGI,HCC-2998 colon,> 100 µM
same,TGI,MOLT-4 leukemia,> 100 µM
same,TGI,SN12C renal,> 100 µM
same,TGI,EKVX NSCLC,> 100 µM
same,TGI,SNB-75 CNS,> 100 µM
same,TGI,A549 NSCLC,> 100 µM
same,TGI,NCI-H226 lung,> 100 µM
same,TGI,CCRF-CEM leukemia,> 100 µM
same,TGI,HT29 colon,> 100 µM
same,TGI,SK-MEL-5 melanoma,> 100 µM
same,TGI,COLO 205 colon,> 100 µM
same,TGI,IGROV1 ovarian,> 100 µM
same,TGI,SK-OV-3 ovarian,> 100 µM
same,TGI,LOX IMVI melanoma,> 100 µM
same,TGI,RXF 393 renal,> 100 µM
same,TGI,SK-MEL-28 melanoma,> 100 µM
O[C@H]1C=C2[C@H](C[C@@H]1O)CN1C[C@H]2c2cc3c(cc21)OCO3,GI50,K-562 leukemia,49.9 µM
same,TGI,K-562 leukemia,> 100 µM
same,GI50,HOP-62 NSCLC,30.5 µM
same,TGI,HOP-62 NSCLC,> 100 µM
same,GI50,NCI-H460 lung,21.7 µM
same,TGI,NCI-H460 lung,> 100 µM
same,GI50,SK-MEL-2 melanoma,99.5 µM
same,TGI,SK-MEL-2 melanoma,> 100 µM
same,GI50,SNB-19 CNS,24.9 µM
same,TGI,SNB-19 CNS,> 100 µM
same,GI50,M14 melanoma,24.9 µM
same,TGI,M14 melanoma,> 100 µM
same,GI50,HL-60(TB) leukemia,23.3 µM
same,TGI,HL-60(TB) leukemia,87.5 µM
same,GI50,TK-10 renal,20.3 µM
same,TGI,TK-10 renal,76.6 µM
same,GI50,OVCAR-8 ovarian,30.2 µM
same,TGI,OVCAR-8 ovarian,> 100 µM
same,GI50,BT-549 breast,37.8 µM
same,TGI,BT-549 breast,> 100 µM
same,GI50,SW-620 colon,49.1 µM
same,TGI,SW-620 colon,> 100 µM
same,GI50,HCT-116 colon,21.6 µM
same,TGI,HCT-116 colon,> 100 µM
same,GI50,MDA-MB-231 breast,33 µM
same,TGI,MDA-MB-231 breast,> 100 µM
same,GI50,OVCAR-5 ovarian,30.2 µM
same,TGI,OVCAR-5 ovarian,> 100 µM
same,GI50,OVCAR-3 ovarian,42.1 µM
same,TGI,OVCAR-3 ovarian,84.6 µM
same,GI50,RPMI-8226 leukemia,35.8 µM
same,TGI,RPMI-8226 leukemia,> 100 µM
same,GI50,NCI-H522 lung,94.5 µM
same,TGI,NCI-H522 lung,> 100 µM
same,GI50,SF-268 CNS,25.4 µM
same,TGI,SF-268 CNS,86.5 µM
same,GI50,HCT-15 colon,30.1 µM
same,TGI,HCT-15 colon,> 100 µM
same,GI50,CAKI-1 renal,23.5 µM
same,TGI,CAKI-1 renal,61.1 µM
same,GI50,UO-31 renal,61.2 µM
same,TGI,UO-31 renal,> 100 µM
same,GI50,UACC-257 melanoma,41.6 µM
same,TGI,UACC-257 melanoma,> 100 µM
same,GI50,786-0 renal,25.5 µM
same,TGI,786-0 renal,> 100 µM
same,GI50,SF-539 CNS,22.4 µM
same,TGI,SF-539 CNS,80.2 µM
same,GI50,KM12 colon,23.4 µM
same,TGI,KM12 colon,> 100 µM
same,GI50,U251 CNS,27.6 µM
same,TGI,U251 CNS,94.1 µM
same,GI50,SF-295 CNS,15.1 µM
same,TGI,SF-295 CNS,67.2 µM
same,GI50,HS 578T breast,79.9 µM
same,TGI,HS 578T breast,> 100 µM
same,GI50,NCI/ADR-RES ovarian,70.5 µM
same,TGI,NCI/ADR-RES ovarian,> 100 µM
same,GI50,PC-3 prostate,49.1 µM
same,TGI,PC-3 prostate,> 100 µM
same,GI50,OVCAR-4 ovarian,32.7 µM
same,TGI,OVCAR-4 ovarian,73 µM
same,GI50,A498 renal,81.8 µM
same,TGI,A498 renal,> 100 µM
same,GI50,MCF7 breast,28.8 µM
same,TGI,MCF7 breast,> 100 µM
same,GI50,ACHN renal,8.92 µM
same,TGI,ACHN renal,36.3 µM
same,GI50,MDA-MB-435,20.1 µM
same,TGI,MDA-MB-435,90.4 µM
same,GI50,NCI-H23 lung,29.3 µM
same,TGI,NCI-H23 lung,96.6 µM
same,GI50,SR leukemia,41 µM
same,TGI,SR leukemia,> 100 µM
same,GI50,HOP-92 NSCLC,83.1 µM
same,TGI,HOP-92 NSCLC,> 100 µM
same,GI50,UACC-62 melanoma,22.1 µM
same,TGI,UACC-62 melanoma,96.2 µM
same,GI50,HCC-2998 colon,20.4 µM
same,TGI,HCC-2998 colon,56 µM
same,GI50,DU-145 prostate,19 µM
same,TGI,DU-145 prostate,> 100 µM
same,GI50,MOLT-4 leukemia,> 100 µM
same,TGI,MOLT-4 leukemia,> 100 µM
same,GI50,SN12C renal,18 µM
same,TGI,SN12C renal,58.9 µM
same,GI50,EKVX NSCLC,39.6 µM
same,TGI,EKVX NSCLC,> 100 µM
same,GI50,A549 NSCLC,28.2 µM
same,TGI,A549 NSCLC,88.8 µM
same,GI50,NCI-H226 lung,22.1 µM
same,TGI,NCI-H226 lung,70.3 µM
same,GI50,CCRF-CEM leukemia,> 100 µM
same,TGI,CCRF-CEM leukemia,> 100 µM
same,GI50,SK-MEL-5 melanoma,29.4 µM
same,TGI,SK-MEL-5 melanoma,> 100 µM
same,GI50,COLO 205 colon,21.4 µM
same,TGI,COLO 205 colon,> 100 µM
same,GI50,IGROV1 ovarian,62 µM
same,TGI,IGROV1 ovarian,> 100 µM
same,GI50,SK-OV-3 ovarian,6.15 µM
same,TGI,SK-OV-3 ovarian,51.1 µM
same,GI50,LOX IMVI melanoma,18.7 µM
same,TGI,LOX IMVI melanoma,55.5 µM
same,GI50,RXF 393 renal,50.3 µM
same,TGI,RXF 393 renal,> 100 µM
same,GI50,SK-MEL-28 melanoma,19 µM
same,TGI,SK-MEL-28 melanoma,87.7 µM
